Patent US9120839B2, “Ursolic acid derivative and method for preparing same” (Nexoligo Co., Ltd., priority 2012, dated 2015)
Where two headings read alike, the source gives them in different places.

Legend:
[1] = rats, from Paper 1; cited from earlier work
[2] = Pharmacokinetic animal test on Sprague Dawley (SD) rat, ursolic acid concentration in blood plasma; assay type: in vivo; conditions: male, intravenous administration, dose 0.5 (mg/kg per Table 1), SD rats
Method: Pharmacokinetic Animal Test on Sprague Dawley (SD) Rat, Using Ursolic Acid and Ursolic Acid Derivatives of Examples
• Ursolic acid derivative of Examples (5-methyl-2-oxo-1,3-dioxole-4-yl)methyl 3β-hydroxyl-urs-12-en-28-oate was used.
The ursolic acid was single-intravenously administered on SD rats and the ursolic acid derivative of Example 2 was orally administered, then blood collection was performed each time, and concentration of the test substance in blood was analyzed. Accordingly, bioavailability of the ursolic acid and ursolic acid derivatives of Examples were measured and compared with each other.
i) Control substance (Intravenous Administration): Ursolic Acid (UA) (HPLC purity of 99.0% or more/area percentage)
ii) Test substance (Oral Administration) Ursolic acid derivative of Example 2 (HPLC purity of 99.4% or more/area percentage)
The control substance for intravenous administration was diluted with 0.9% saline which was sterilized and sealed to be prepared in 0.5 mg/mL. […]
(3) Calculation of Injection Amount: The injection amount was calculated to be 1.0 or 2.0 mL/kg, on the basis of the recently measured body weight before the administration. […]
Concentration of ursolic acid in the blood plasma of the rats was measured. […]

[3] = background statement on ursolic acid; cited from earlier work

Row | SMILES | oral absorptivity [1] | AUC(0-t) [2] [ng·h/mL] | Cmax [2] [ng/mL] | oral absorptivity [3]
1 | CC1(C)CC[C@]2(C(=O)O)CC[C@]3(C)C(=CC[C@@H]4[C@@]5(C)CC[C@H](O)C(C)(C)[C@@H]5CC[C@]43C)[C@@H]2C1 [oleanolic acid] | about 0.7% |  |  | 
2 | C[C@H]1[C@H](C)CC[C@]2(C(=O)O)CC[C@]3(C)C(=CC[C@@H]4[C@@]5(C)CC[C@H](O)C(C)(C)[C@@H]5CC[C@]43C)[C@H]12 [Ursolic Acid, 3β-hydroxy-urs-12-en-28-oic acid] |  | 114 | 378 | less than 1%
